Laboratory results reported in article PMC11984924, “Dipeptidic Phosphonates: Potent Inhibitors of Pseudomonas aeruginosa Elastase B Showing Efficacy in a Murine Keratitis Model” (Advanced Science, 2025).

Columns and labels:
[1] = biological target: T1, TACE (ADAM17) (Homo sapiens, UniProt P78536); experiment: TACE (ADAM17) inhibition (off-target); assay type: biochemical; details: read-out: TACE (ADAM17) % inhibition at 100 µM
T1 construct: purchased Sigma-Aldrich (Saint Louis, MO)
Procedure: (§1) 3.1 In vitro inhibition assays
(§2) LasB was expressed and purified as described previously.[3] In vitro inhibition assays (LasB, MMPs, TACE). All in vitro inhibition assays were performed as described previously.[10] TACE inhibitor screening kits were purchased from Sigma-Aldrich (Saint Louis, MO). MMPs along with the SensoLyte 520 Generic MMP Activity Kit Fluorimetric were purchased from AnaSpec (Fremont, CA, USA). The assays were performed according to the guidelines of the respective manufacturer. Fluorescence signals were measured using a CLARIOstar plate reader (BMG Labtech, Ortenberg, Germany). […]
(§3) 3.8 Test against zinc metalloproteases MMP1–3 and TACE (ADAM17), and testing of
(§4) We selected a panel of human off -targets, including three human matrix metalloproteases (MMP-1, -2 and -3) and TACE (ADAM-17). These assays were performed as described previously.[3] The TACE inhibitor screening kit was purchased from Sigma -Aldrich (Saint Louis, MO). MMPs along with the SensoLyte 520 Generic MMP Activity Kit Fluorimetric were purchased from AnaSpec (Fremont, CA, USA). The assays were performed according to the guidelines of the respective manufacturer. Fluorescence signals were measured using a CLARIOstar plate reader (BMG Labtech, Ortenberg, Germany). […]
(§5) Table S6: Percent (%) inhibition of three MMPs (1 –3) and TACE (ADAM17) in presence of selected LasB inhibitors at 100 µM. Results are means and SD of at least two independent experiments. […]
(§6) Compound [% inhibition at [% inhibition at [% inhibition at [% inhibition at 100

[2] = tested on: A549 cells; experiment: Cytotoxicity A549; assay type: cell-based; details: Homo sapiens, A549, read-out: A549 % inhibition at 100 µM (metabolic activity), 48 hours
Procedure: (§7) HepG2 (human hepatocellular carcinoma), HEK293 (human embryonal kidney) and A549
(§8) (human lung carcinoma) cells (2x10^5 cells per well) were seeded in 24-well in flat-bottomed
(§9) plates. Culturing of cells, incubations and OD measurements were performed as described
(§10) previously with small modifications.[14] Twenty-four hours after seeding the cells the incubation
(§11) was started by the addition of compounds in a final DMSO concentration of 1%. The living cell
(§12) mass was determined after 48 hours in a PHERAstar microplate reader (BMG labtech,
(§13) Ortenberg, Germany). Two independent measurements were performed for each compound.

[3] = biological target: T2, MMP-1 (Homo sapiens, UniProt P03956); experiment: MMP-1 inhibition (off-target); assay type: biochemical; details: read-out: MMP-1 % inhibition at 100 µM
T2 construct: purchased AnaSpec (Fremont, CA, USA)
T2 sequence (P03956 100-469): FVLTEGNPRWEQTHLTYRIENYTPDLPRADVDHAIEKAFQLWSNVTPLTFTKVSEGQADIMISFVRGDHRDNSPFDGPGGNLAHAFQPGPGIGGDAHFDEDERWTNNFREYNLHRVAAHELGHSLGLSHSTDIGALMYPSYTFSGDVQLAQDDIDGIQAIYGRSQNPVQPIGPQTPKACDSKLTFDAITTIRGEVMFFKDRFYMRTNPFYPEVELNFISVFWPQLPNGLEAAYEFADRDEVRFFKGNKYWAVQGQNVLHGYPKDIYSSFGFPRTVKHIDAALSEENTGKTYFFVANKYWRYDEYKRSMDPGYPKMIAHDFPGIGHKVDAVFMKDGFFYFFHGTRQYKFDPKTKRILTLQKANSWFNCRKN
Procedure: as §1, §2, §3, §4, §5, §6

[4] = tested on: HepG2 cells; experiment: Cytotoxicity HepG2; assay type: cell-based; details: Homo sapiens, HepG2, read-out: HepG2 % inhibition at 100 µM (metabolic activity), 48 hours
Procedure: as §7, §8, §9, §10, §11, §12, §13

[5] = tested on: Pseudomonas aeruginosa strain PA14; experiment: Antibacterial effect on P. aeruginosa PA14 growth; assay type: cell-based; details: PA14, read-out: P. aeruginosa PA14 % inhibition of growth at 100 µM, 18 h, 37 °C
Procedure: Table S14: Food consumption after treatment with (R)-30.
Table S15: Body and organ weights (gram) after treatment with (R)-30.
3.12 Antibacterial effects
As start OD600 of Pseudomonas aeruginosa strain PA14 we used 0.03 in a total volume of 200
µL in lysogeny broth containing the compounds predissolved in DMSO (max. 1%). Final
compound concentrations prepared from serial dilutions ranged from 3.125 to 100 µM (double
values for each concentration). The ODs were determined after addition of the compounds and
again after incubation for 18 h at 37 °C and 200 rpm in 96 well plates (Sarstedt, Nümbrecht,
Germany) using a FLUOStar Omega (BMG labtech, Ortenberg, Germany). Given percent (%)
inhibition values are means of at least two independent determinations. To obtain the values
for a given compound, their ODs were compared to those of DMSO controls. Concerning the […]

[6] = Plasma stability, human; assay type: in vitro ADME; details: read-out: Plasma t1/2 Human
Procedure: To determine stability in plasma, the compound (1 µM) was incubated with pooled CD -1 […]
mouse/human/Wistar rat or Göttingen minipig plasma (Neo Biotech, Nanterre, France).
Samples were taken by mixing aliquots with 4 volumes of acetonitrile containing internal […]
standard (125 nM diphenhydramine). The plasma stability of procain, propantheline and diltiazem were determined in parallel to confirm the enzymatic activity. Samples were stored […]
on ice until the end of the incubation and precipitated protein was removed by centrifugation […]
(15 min, 4 °C, 4,000 g, two centrifugation steps). Concentration of the remaining test compound at the different time points was analyzed by HPLC-MS/MS (TSQ Quantum Access MAX, […]
Thermo Fisher, Dreieich, Germany) and used to determine half-life (t1/2).
Table S2: Additional in vitro ADMET data for selected dipeptides. n.d.: not determined.
Kinetic Liver S9 Clint [µL/mg/min] Plasma t1/2 [min] LogD7.4 […]
pH 7.4 [µM] Mouse Human Mouse Human

T1 sequence (P78536 215-824): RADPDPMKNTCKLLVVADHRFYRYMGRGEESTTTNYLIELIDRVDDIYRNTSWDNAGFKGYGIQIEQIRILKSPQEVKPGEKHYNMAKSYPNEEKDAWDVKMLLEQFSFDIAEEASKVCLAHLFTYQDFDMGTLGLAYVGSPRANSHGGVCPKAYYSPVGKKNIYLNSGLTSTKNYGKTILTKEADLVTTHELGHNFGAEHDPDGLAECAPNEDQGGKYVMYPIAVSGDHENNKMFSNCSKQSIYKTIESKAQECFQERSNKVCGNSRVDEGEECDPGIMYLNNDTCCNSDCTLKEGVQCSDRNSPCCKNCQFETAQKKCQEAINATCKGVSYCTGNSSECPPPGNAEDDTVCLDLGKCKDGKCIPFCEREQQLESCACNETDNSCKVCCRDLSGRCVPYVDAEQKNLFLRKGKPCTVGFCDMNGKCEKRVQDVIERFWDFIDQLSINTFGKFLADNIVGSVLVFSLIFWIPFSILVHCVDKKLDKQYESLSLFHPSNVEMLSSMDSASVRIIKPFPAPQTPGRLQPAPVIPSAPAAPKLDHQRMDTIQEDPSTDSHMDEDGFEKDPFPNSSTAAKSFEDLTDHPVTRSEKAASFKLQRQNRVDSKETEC

For `CC(=O)c1ccc(NC(=O)[C@@H](NC(=O)[C@@H](CC(C)C)P(=O)(O)O)C(C)C)cc1` [(R)‐30], the inhibition at 100 µM [1] was 13 ± 2%, the inhibition at 100 µM [2] was under 10% and the inhibition at 100 µM [3] was under 10%. The inhibition at 100 µM [4] was under 10%, the inhibition at 100 µM [5] was under 10% and the half-life at 1 µM [6] was over 2.5 h.
`CC(C)CC(C(=O)N[C@H](C(=O)Nc1ccc(Cl)c(Cl)c1)C1CCCCC1)P(=O)(O)O` (stereo partly drawn) [compound 14] showed an inhibition at 100 µM [1] of under 10%, an inhibition at 100 µM [2] of under 10% and an inhibition at 100 µM [3] of under 10%. It also gave an inhibition at 100 µM [4] of 13%, an inhibition at 100 µM [5] of under 10% and a half-life at 1 µM [6] of over 2.5 h.
With `CC(C)CC(C(=O)N[C@H](C(=O)Nc1ccc(Cl)c(Cl)c1)C(C)C)P(=O)(O)O` (stereo partly drawn) [compound 9] the inhibition at 100 µM [1] was under 10%, the inhibition at 100 µM [2] was under 10% and the inhibition at 100 µM [3] was 13 ± 1%. The inhibition at 100 µM [4] was under 10%, the inhibition at 100 µM [5] was under 10% and the half-life at 1 µM [6] was over 2.5 h.
Molecule `CC(C)C[C@H](C(=O)N[C@H](C(=O)Nc1ccc(-n2ccnc2)cc1)C(C)C)P(=O)(O)O` [(R)‐36] has an inhibition at 100 µM [1] of under 10%, an inhibition at 100 µM [2] of under 10% and an inhibition at 100 µM [3] of under 10%. It also gave an inhibition at 100 µM [4] of under 10%, an inhibition at 100 µM [5] of under 10% and a half-life at 1 µM [6] of over 2.5 h.
In the case of `CC(=O)c1ccc(NC(=O)[C@@H](NC(=O)C(CC(C)C)P(=O)(O)O)C(C)C)cc1` (stereo partly drawn) [compound 30], the inhibition at 100 µM [1] is reported as 13 ± 4%, the inhibition at 100 µM [2] is reported as under 10% and the inhibition at 100 µM [3] is reported as under 10%. It also gave an inhibition at 100 µM [4] of under 10%, an inhibition at 100 µM [5] of under 10% and a half-life at 1 µM [6] of over 2.5 h.
Work on `CC(C)CC(C(=O)N[C@H](C(=O)Nc1ccc(Cl)c(Cl)c1)C1CCC1)P(=O)(O)O` (stereo partly drawn) [compound 13] yielded an inhibition at 100 µM [1] of under 10%, an inhibition at 100 µM [2] of under 10% and an inhibition at 100 µM [3] of under 10%. The inhibition at 100 µM [4] was under 10%, the inhibition at 100 µM [5] was under 10% and the half-life at 1 µM [6] was over 2.5 h.
